These results are taken from patent publication US9464093B2, “Substituted imidazo[4',5':4,5]cyclopenta[1,2-e]pyrrolo[1,2-a]pyrazines and oxazolo[4',5':4,5]cyclopenta[1,2-e]pyrrolo[1,2-a]pyrazines for treating brain cancer” (Mayo Foundation for Medical Education and Research, priority 2012, dated 2016).

Where two headings read alike, the source gives them in different places. Where only a bound is given, the exact number is not on record here.

Series [1] has as its system DU145 prostate cancer cells. Description: Cytotoxicity, MTT method, DU145. The settings on record: read-out: Cytotoxicity (IC50, μM) DU145.
Experimental: The cell suspension in the culture medium was plated into each well of 96-well plates (10,000 cells/well/100 μL). After 24 h, testing compounds were added, and then the plates were incubated for an additional 24 h in a humidified atmosphere of 5% CO2 at 37° C. […] The IC50 value was determined by linear interpolation from the growth inhibition curve.
The subject of series [2] is MB-468 (triple-negative breast cancer cells). As to the kind of experiment: Cytotoxicity, cell count, MB-468 (Example 4). The note with it: read-out: Cytotoxicity (IC50, μM) MB-468.
Experimental: (§1) Raji cells and MB-468 cells were purchased from American Tissue Culture (Manassas, Va.). […] Cells were harvested and counted on the third day in a Coulter Particle Counter (Beckman-Coulter Corp.: Brea, Calif.). IC50 values were calculated using GraphPad Prism 5 (GraphPad Software Inc., La Jolla, Calif.).
Series [3] relates to Raji B cells (Burkitt's lymphoma cells). As to the kind of experiment: Cytotoxicity, cell count, Raji (Example 4). The settings on record: read-out: Cytotoxicity (IC50, μM) Raji.
Experimental: as §1

As a reminder, the IC50 is the concentration that gives 50% inhibition. Regarding `COc1ccc(CN2C(=O)N[C@H]3[C@@H]4NC(=O)c5ccc(Br)n5[C@@H]4C[C@]32O)cc1` [N-PMBAA, N-p-methoxybenzyl agelastatin A], the IC50 in series [1] (Homo sapiens, DU-145, 24 h) was above 10 µM.

For the molecule `CN1C(=O)N[C@H]2[C@@H]3NC(=O)c4ccc(C5CC5)n4[C@@H]3C[C@]21O` [CPAA, cyclopropylagelastatin A], the IC50 in series [1] (Homo sapiens, DU-145, 24 h) came to 5 µM; in series [2], 1 µM; in series [3] (Homo sapiens, Raji) it was 0.4 µM.

For `CNC(=O)N[C@H]1[C@@H]2NC(=O)c3ccc(Br)n3[C@@H]2C[C@H]1O` [UAA, ureaagelastaitin A], the IC50 in series [2] is above 10 µM; in series [3] (Homo sapiens, Raji), above 10 µM.

Regarding debromoagelastatin A [DeBAA], the IC50 in series [1] (MTT, 24 h incubation) is above 10 µM; in series [2] (cells counted on the third day), 3 µM; in series [3] (cells counted on the third day), 3.16 µM.

As for `CN1C(=O)N[C@H]2[C@@H]3NC(=O)c4ccc(-c5ccccc5)n4[C@@H]3C[C@]21O` [PAA, phenylagelastatin A], the IC50 in series [1] (Homo sapiens, DU-145, 24 h) worked out at 6 µM; in series [2] it was 1.5 µM; in series [3] (Homo sapiens, Raji) it was 3.8 µM.

As to `CCN1C(=O)N[C@H]2[C@@H]3NC(=O)c4cccn4[C@@H]3C[C@]21O` [DeBEAA, debromoethylagelastatin A], the IC50 in series [1] (Homo sapiens, DU-145, 24 h) is above 10 µM.

As for `CCN1C(=O)N[C@H]2[C@@H]3NC(=O)c4ccc(Br)n4[C@@H]3C[C@]21O` [EAA, ethylagelastatin A], the IC50 in series [1] (Homo sapiens, DU-145, 24 h) was above 10 µM.

In the case of `CN1C(=O)N[C@H]2[C@@H]3NC(=O)c4ccc(-c5ccc(N)cc5)n4[C@@H]3C[C@]21O` [APAA, p-aminophenylagelastatin A], in series [1] (Homo sapiens, DU-145, 24 h), the IC50 is above 10 µM.

On to `CN1C(=O)N[C@@H]2[C@H]3NC(=O)c4ccc(Br)n4[C@H]3C[C@@]21O` [ent-AA], for which the IC50 in series [1] (MTT, 24 h incubation) is above 10 µM.
